Laboratory results: paper PMC3272488 (European Journal of Medicinal Chemistry, 2011)
Counter-ions that a name gives are not always drawn.

Columns and labels:
sigma-2 receptors = target: T1, sigma-2 receptors (Rattus norvegicus, UniProt Q5U3Y7); test: sigma-2 receptor radioligand binding
T1 sequence (Q5U3Y7 1-176): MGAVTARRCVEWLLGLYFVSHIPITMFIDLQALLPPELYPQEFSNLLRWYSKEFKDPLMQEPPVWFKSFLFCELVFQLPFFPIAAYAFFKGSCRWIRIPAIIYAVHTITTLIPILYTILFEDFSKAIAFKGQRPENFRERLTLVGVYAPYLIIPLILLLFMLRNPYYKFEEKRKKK

σ-1 = conditions: quantity type not given; cited from earlier work
σ-2 = conditions: quantity type not given; cited from earlier work

Fc1ccc(N2CCN(CCCCn3ccc4ccccc43)CC2)cc1 [4b, 1-(4-(4-(4-Fluorophenyl)piperazin-1-yl)butyl)indole oxalate]
σ-1/σ-2 selectivity ratio (sigma-2 receptors): 5

COc1cc2c(cc1OC)CN(CCCCNC(=O)c1cc(Br)cc(OC)c1OC)CC2 [5-bromo-N-(4-(6,7-dimethoxy-3,4-dihydroisoquinolin-2(1H)-yl)butyl)-2,3-dimethoxybenzamide]
σ-1 affinity (σ-1): 12,900 nM | σ-2 affinity (σ-2): 8.2 nM

Fc1ccc(-n2cc(CCCCN3CCC4(CC3)OCc3ccccc34)c3ccccc32)cc1 [Siramesine]
σ-1 affinity (σ-1): 17 nM
